Results as given in PMC7145534, “Are the intrinsically disordered linkers involved in SSB binding to accessory proteins?” (Nucleic Acids Research, 2019).
Entries after “also recorded” stand apart in the source; their conditions may differ.

How the values were obtained:
[1] = system: DNA Pol III (χ); test: ITC of SSB-Ct peptides binding to the χ subunit; parameters: species or system Escherichia coli; settings: pH 8.0, 50 mM NaCl, 25°C; N fixed to 1
Description: (§1) The concentrations were determined thereafter.

[2] = system: E. coli RecO; test: ITC of SSB-Ct peptides binding to RecO; parameters: species or system Escherichia coli; settings: 25°C
Description: as §1

[3] = system: DNA Pol III (χ); settings: previous study; cited from earlier work
Text: When DNA is bound to the DBD, the acidic tip no longer interacts with the DBD and thus is more available to interact with a SIP. This is supported by the observation that ΔH = −6.0 ± 0.1 kcal/mol for RecO binding to the SSBΔ120-166–(dT)70 complex, which should not contain contributions from the acidic tip-DBD intramolecular interactions.

[4] = system: PriA; settings: previous study; cited from earlier work
Description: All binding reactions were performed under identical solution conditions, although additional experiments were performed at a lower [NaCl] for PriC as indicated, ...

[5] = system: PriA; settings: pH 8.0, 50 mM NaCl, 25°C; N fixed to 1
Description: Isothermal titration calorimetry (ITC) experiments were performed using a VP-ITC titration microcalorimeter (Malvern Panalytical, Malvern, UK) ([68]). All proteins and oligonucleotides were dialyzed extensively against the indicated buffer and cleared by centrifugation at 14 000 rpm for 15 min at 4°C. The concentrations were determined thereafter. For experiments with the SSB-Ct peptides and SIPs, 40–50 μM peptides were titrated into 1–2 μM SIPs in Buffer BTP at pH 8.0 and 50 mM NaCl. For experiments with the full-length SSB and its deletion mutants and SIPs, SSB tetramer (8–10 μM) was titrated into SIP (1 μM) in Buffer BTP at pH 7.0 and 200 mM NaCl. The heats of dilution were obtained by blank titrations in which the titrant species is titrated into the buffer, and corrections for heats of dilution were applied.
The raw data were analyzed to obtain titration curves by integrating each peak from the time of titrant addition until equilibration back to the baseline using ‘MicroCal Data Analysis’ software provided by the manufacturer. […] The concentration of the free ligand (X) was obtained by solving Equation (2).(2)
In Equations (1) and (2), and are the total concentrations of the ligand and macromolecule, respectively, in the calorimetric cell after ith injection and X is the free ligand concentration. Nonlinear least-squares fitting of the data was performed using the same software. […]

[6] = system: PriC; test: ITC of SSB-Ct peptides binding to PriC; parameters: species or system Escherichia coli; settings: 25°C
Description: as §1

[7] = system: (dT)70; test: ITC control of P65 peptide and (dT)70; format: binding; settings: BTP pH 7.0, 20 mM NaCl, 25°C
Description: The concentrations were determined thereafter. […]
Figure S7. Results from various control ITC titrations of (a) SSB-A and RecO at 15°C and (b) 25°C, (c) SSB-A and c, (d) P65 and (dT)70, (e) (dT)70 and SSB-A, and (f) (dT)70 and wtSSB. (a) SSB-A (10 µM), a homo-tetrameric SSB variant containing an additional six amino acids, TGASGT, at the C-terminus of each subunit, was titrated into […]
(5.9 µM) was titrated into c (1 µM) in buffer T (10 mM Tris-HCl, pH 8.1, 200 mM NaCl, […]
0.1 mM EDTA) at 25° C. […] (d) dT70 (60 µM) was […]
titrated into P65 (2 µM) in buffer BTP (pH 7.0, 20 mM NaCl) at 25° C. P65, the full-length […]
(dT)70. (e) (dT)70 (15 µM) was titrated into SSB-A (1 µM) in buffer T at 25° C. SSB-A (also on this page, place not known: 15°C 25°C. 25°C. 25°C. 25°C. 2.00 kcal mol-1 of injectant kcal mol-1 of injectant [SSB-A]tot/[RecO]tot kcal mol-1 of injectant [SSB-A]tot/[c]tot (f)(d))

P15: SSB-Ct peptide, C-terminal 15 amino acids of E. coli SSB, contains acidic tip, no PXXP motifs (PSNEPPMDFDDDIPF)
K (equilibrium binding constant) [1]: (3.0 ± 0.1) × 10^5 M^−1 | K ([2]; BTP pH 7, 200 mM NaCl): (1.1 ± 0.1) × 10^6 M^−1 | K (equilibrium binding constant) ([2]; pH 8.0, 50 mM NaCl, N fixed to 1): (1.2 ± 0.3) × 10^7 M^−1 | binding to χ [3]: same affinity as P9 | binding to PriA [4]: same affinity as P9 | K (equilibrium binding constant) [5]: (2.6 ± 0.1) × 10^5 M^−1 | K (equilibrium binding constant) ([6]; pH 8.0, 10 mM NaCl, N fixed to 1): (1.6 ± 0.1) × 10^6 M^−1 | binding detected by ITC ([6]; pH 8.0, 50 mM NaCl): undetectable; also recorded: showed no binding

B1: P65: SSB-Ct peptide, C-terminal 65 amino acids of SSB; acidic tip and the full IDL (peptide)
peptide: GGRQGGGAPAGGNIGGGQPQGGWGQPQQPQGGNQFSGGAQSRPQQSAPAAPSNEPPMDFDDDIPF
binding to (dT)70 by ITC [7]: does not interact; also recorded: no detectable interaction
